Patent US12187709B2 (Genentech, Inc., priority 2021, dated 2025)

Legend:
c-Cbl (residues 47-435) = c-Cbl (residues 47-435) (Homo sapiens (Human), UniProt P22681); assay: c-Cbl SPR assay; format: binding; settings: 20° C.
Method in brief: (§1)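 Binding is measured by surface plasmon resonance against both isoforms, with double referencing and 1:1 kinetic fitting. Dissociation time is tuned to 4-5 half-lives.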

[1] = molecular target: Human Cbl-b (residues 40-426) (Homo sapiens (Human), UniProt Q13191); assay: Cbl-b SPR assay; format: binding; settings: for Fold of selectivity: C-cbl SPR Kd vs Cbl-b SPR Kd; for Kd: SPR, 20° C.
Human Cbl-b (residues 40-426), sequence (Q13191 40-426): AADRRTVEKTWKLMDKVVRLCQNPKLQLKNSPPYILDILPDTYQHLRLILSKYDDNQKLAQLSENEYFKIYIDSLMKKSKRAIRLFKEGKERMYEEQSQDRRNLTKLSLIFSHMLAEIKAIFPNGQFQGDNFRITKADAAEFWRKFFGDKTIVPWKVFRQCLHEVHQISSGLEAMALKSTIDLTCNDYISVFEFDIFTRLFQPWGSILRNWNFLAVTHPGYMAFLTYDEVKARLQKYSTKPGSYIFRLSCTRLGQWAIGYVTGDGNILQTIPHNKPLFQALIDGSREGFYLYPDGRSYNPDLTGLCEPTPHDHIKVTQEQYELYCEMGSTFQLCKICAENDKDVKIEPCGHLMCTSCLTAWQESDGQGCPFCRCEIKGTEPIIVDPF
Method in brief: as §1

c-Cbl = c-Cbl (Homo sapiens (Human), UniProt P22681); assay: C-Cbl LCK Ub TR-FRET assay (C-cbl Lck HTRF); format: biochemical
c-Cbl, sequence (P22681 47-435): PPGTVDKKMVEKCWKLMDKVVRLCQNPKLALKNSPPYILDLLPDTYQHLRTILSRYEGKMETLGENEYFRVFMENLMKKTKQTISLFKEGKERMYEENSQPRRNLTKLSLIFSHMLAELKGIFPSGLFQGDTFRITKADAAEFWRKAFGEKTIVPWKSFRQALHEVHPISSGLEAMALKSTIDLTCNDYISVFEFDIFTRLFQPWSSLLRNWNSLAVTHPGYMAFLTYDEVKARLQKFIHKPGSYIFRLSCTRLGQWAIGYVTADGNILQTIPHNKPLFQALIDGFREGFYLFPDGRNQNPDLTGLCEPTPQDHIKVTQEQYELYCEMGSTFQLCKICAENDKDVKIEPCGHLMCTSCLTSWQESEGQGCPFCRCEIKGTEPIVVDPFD
Method in brief: (§2)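 Signal is read once the detection mix has stood 20 min at ambient temperature. Curves are anchored by DMSO as maximum and by omission of LCK as minimum.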

Cbl-b = Cbl-b (Homo sapiens (Human), UniProt Q13191); assay: Cbl-b LCK Ub TR-FRET assay (Cbl-b Lck HTRF); format: biochemical; settings: for IC50: Cbl-b LCK Ub TR-FRET
Cbl-b, sequence (Q13191 40-426): as the sequence (Q13191 40-426) above
Method in brief: as §2

[2] = ratio C-cbl Lck HTRF IC50 / Cbl-b Lck HTRF IC50

c-Cbl (residues 47-435), sequence (P22681 47-435): as the sequence (P22681 47-435) above

Structure (SMILES)	Kd (c-Cbl (residues 47-435)) [nM]	Fold of selectivity [1] [×]	Kd [1] [nM]	IC50 (c-Cbl) [nM]	IC50 (Cbl-b) [nM]	fold-selectivity (Cbl-b over C-cbl) (Cbl-b; [2]) [x]	IC50 (Cbl-b; Example 121) [nM]	(fold-selectivity) Cbl-b and C-Cbl Selectivity (Cbl-b; [2]) [x]
CC(=O)N1CC([C@@H](c2cccc(N3Cc4c(cc(CNC5(C)CCC5)cc4C(F)(F)F)C3=O)c2)c2nncn2C)C1 (single isomer, unassigned) [Compound 402]	2800	3.4	890	2500	580	4.3	–	–
C[C@H](NC1(C)CCC1)c1cc2c(c(C(F)F)c1)CN(c1cccc([C@@H](c3nncn3C)C3COC3)c1)C2=O (single isomer, unassigned) [Compound 407]	4300	16	270	5700	–	–	390	14
Cn1cnnc1[C@@H](c1cc(Cl)cc(N2Cc3c(cc(CNC4(C)CCC4)cc3C(F)(F)F)C2=O)c1)C1COC1 (single isomer, unassigned) [Compound 408]	770	1.8	440	780	–	–	540	1.4
Cn1cnnc1[C@H](c1cc(Cl)cc(N2Cc3c(cc(CNC4(C)CCC4)cc3C(F)(F)F)C2=O)c1)C1COC1 (single isomer, unassigned) [Compound 409]	90	1.4	62	57	–	–	52	1.1
C[C@@H](NC1(C)CCC1)c1cc2c(c(C(F)F)c1)CN(c1cccc([C@H](c3nncn3C)C3COC3)c1)C2=O (single isomer, unassigned) [Compound 412]	82	16	5.2	59	–	–	14	4.2
C[C@H](NC1(C)CCC1)c1cc2c(c(C(F)F)c1)CN(c1cccc([C@H](c3nncn3C)C3COC3)c1)C2=O (single isomer, unassigned) [Compound 413]	1.6	5.3	0.3	7.1	–	–	4.5	1.6
Cn1cnnc1[C@@H](c1cccc(N2Cc3c(cc(CNC4(C)CCC4)cc3C(F)(F)F)C2=O)c1)C1(O)CCC1 (single isomer, unassigned) [Compound 429]	170	4.8	42	200	–	–	37	5.1
Cn1cnnc1[C@@H](c1cccc(N2Cc3c(cc([C@@H](NC4(C)CCC4)C4CC4)cc3C(F)(F)F)C2=O)c1)C1COC1 (single isomer, unassigned) [Compound 430]	74	14	5.9	91	–	–	19	4.7
Cn1cnnc1[C@@H](c1cccc(N2Cc3c(cc([C@H](NC4(C)CCC4)C4CC4)cc3C(F)(F)F)C2=O)c1)C1COC1 (single isomer, unassigned) [Compound 431]	1.3	3.1	0.4	5.8	–	–	5.3	1.1
Cn1cnnc1[C@@H](c1cccc(N2Cc3c(cc([C@H](NC4(C)CCC4)C4CCC4)cc3C(F)(F)F)C2=O)c1)C1COC1 (single isomer, unassigned) [Compound 432]	1.5	3.6	0.4	7.1	–	–	5.5	1.3
Cn1cnnc1[C@@H](c1cccc(N2Cc3c(cc([C@@H](NC4(C)CCC4)C4CCC4)cc3C(F)(F)F)C2=O)c1)C1COC1 (single isomer, unassigned) [Compound 433]	86	10	8.5	78	–	–	17	4.7
Cn1cnnc1[C@H](c1cccc(N2Cc3c(cc([C@H](NC4(C)CCC4)C4CCC4)cc3C(F)(F)F)C2=O)c1)C1COC1 (single isomer, unassigned) [Compound 434]	2500	13	190	510	–	–	160	3.1
CC1(NCc2cc3c(c(C(F)(F)F)c2)CN(c2cccc([C@@H](C4COC4)n4ccnn4)c2)C3=O)CCC1 (single isomer, unassigned) [Compound 436]	3500	5.3	600	2400	–	–	–	4.2
C[C@H](NC1(C)CCC1)c1cc2c(c(C(F)(F)F)c1)CN(c1cccc([C@@H](c3nncn3C)C3COC3)c1)C2=O (single isomer, unassigned) [Compound 442]	3300	18	180	2800	–	–	260	11
Cn1cnnc1[C@H](c1cccc(N2Cc3c(cc([C@H](NC4(C)CCC4)C4CC4)cc3C(F)(F)F)C2=O)c1)C1COC1 (single isomer, unassigned) [Compound 456]	4100	18	230	2400	–	–	360	6.5
Cn1cnnc1[C@@H](c1cccc(N2Cc3c(cc(CNC4(C)CCC4)cc3C(F)F)C2=O)c1)C1CC(F)C1 (single isomer, unassigned) [Compound 458]	57	10	5.7	43	–	–	14	3.1
Cn1cnnc1[C@@H](c1cccc(N2Cc3c(cc(CNC4(C)CCC4)cc3C(F)F)C2=O)c1)C1CC(F)C1 (single isomer, unassigned) [Compound 459]	3.2	6.1	0.5	6.3	–	–	5.9	1.1
CC(C)CNCc1cc2c(c(C(F)(F)F)c1)CN(c1cccc([C@H](c3nncn3C)C3COC3)c1)C2=O (single isomer, unassigned) [Compound 464]	3.6	3.3	1.1	7.1	–	–	6.5	1.1
Cn1cnnc1[C@@H](c1cccc(N2Cc3c(cc(CNC4(C)CC4)cc3C(F)(F)F)C2=O)c1)C1COC1 (single isomer, unassigned) [Compound 466]	9.1	3.6	2.5	8.6	–	–	6.2	1.4
Cn1cnnc1[C@@H](c1cccc(N2Cc3c(cc(CNCC(C)(C)C)cc3C(F)(F)F)C2=O)c1)C1COC1 (single isomer, unassigned) [Compound 468]	12	7	1.6	7.5	–	–	5.2	1.4
CO[C@H]1C[C@](c2cccc(N3Cc4c(cc(CN[C@@H]5C[C@H]5C(C)(F)F)cc4C(F)(F)F)C3=O)c2)(c2nncn2C)C1 (single isomer, unassigned) [Compound 506]	450	8.1	55	180	–	–	22	8.0
